Test results as given in patent US20260262643A1, “HERBICIDAL BENZOXAZINES” (FMC CORPORATION, priority 2022, published 2026).

Legend:
[1] = test system: rice; assay: Test D flooded paddy test; format: in vivo, Oryza sativa; conditions: 250 g ai/ha, applied to paddy water, visual rating after 13 to 14 days, scale 0 to 100 (0 no effect, 100 complete control)
How it was run: (§1)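 Seedlings reached the 2-leaf stage, then pots were flooded to 3 cm over the soil surface. Compound was applied into the water, depth was maintained, and plants stayed in the greenhouse 13 to 14 days before visual scoring (0–100) relative to controls.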

[2] = test system: blackgrass; assay: Test C preemergence; format: in vivo, Alopecurus myosuroides
How it was run: (§2)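 Soil-applied (pre) and foliar (post, 1–2 leaf, 2–10 cm) sprays; surfactant-containing non-phytotoxic solvent vehicle; loam/sand substrate. Readout: visual % control at 10 d, greenhouse, versus untreated.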

[3] = test system: ryegrass, Italian; assay: Test C postemergence; format: in vivo, Lolium multiflorum; conditions: 10 days, 0 to 100 scale (0 no effect, 100 complete control)
How it was run: as §2

[4] = test system: soybean; assay: Test C postemergence; format: in vivo, Glycine max; conditions: 10 days, 0 to 100 scale (0 no effect, 100 complete control)
How it was run: as §2

[5] = test system: sedge, umbrella; assay: Test D flooded paddy test; format: in vivo, Cyperus difformis; conditions: 250 g ai/ha, applied to paddy water, visual rating after 13 to 14 days, scale 0 to 100 (0 no effect, 100 complete control)
How it was run: as §1

[6] = test system: kochia; assay: Test C postemergence; format: in vivo, Bassia scoparia; conditions: 10 days, 0 to 100 scale (0 no effect, 100 complete control)
How it was run: as §2

[7] = test system: ducksalad; assay: Test D flooded paddy test; format: in vivo, Heteranthera limosa; conditions: 250 g ai/ha, applied to paddy water, visual rating after 13 to 14 days, scale 0 to 100 (0 no effect, 100 complete control)
How it was run: as §1

[8] = test system: oat, wild; assay: Test C postemergence; format: in vivo, Avena fatua; conditions: 10 days, 0 to 100 scale (0 no effect, 100 complete control)
How it was run: as §2

[9] = test system: soybean; assay: Test C preemergence; format: in vivo, Glycine max
How it was run: as §2

[10] = test system: wheat; assay: Test C postemergence; format: in vivo, Triticum aestivum; conditions: 10 days, 0 to 100 scale (0 no effect, 100 complete control)
How it was run: as §2

[11] = test system: barnyardgrass; assay: Test D flooded paddy test; format: in vivo, Echinochloa crus-galli; conditions: 250 g ai/ha, applied to paddy water, visual rating after 13 to 14 days, scale 0 to 100 (0 no effect, 100 complete control)
How it was run: as §1

[12] = test system: kochia; assay: Test C preemergence; format: in vivo, Bassia scoparia
How it was run: as §2

[13] = test system: blackgrass; assay: Test C postemergence; format: in vivo, Alopecurus myosuroides; conditions: 10 days, 0 to 100 scale (0 no effect, 100 complete control)
How it was run: as §2

[14] = test system: pigweed, palmer; assay: Test C preemergence; format: in vivo, Amaranthus palmeri
How it was run: as §2

[15] = test system: ragweed; assay: Test C postemergence; format: in vivo, Ambrosia artemisiifolia; conditions: 10 days, 0 to 100 scale (0 no effect, 100 complete control)
How it was run: as §2

[16] = test system: barnyardgrass; assay: Test C preemergence; format: in vivo, Echinochloa crusgalli
How it was run: as §2

[17] = test system: pigweed, palmer; assay: Test C postemergence; format: in vivo, Amaranthus palmeri; conditions: 10 days, 0 to 100 scale (0 no effect, 100 complete control)
How it was run: as §2

[18] = test system: ragweed; assay: Test C preemergence; format: in vivo, Ambrosia artemisiifolia
How it was run: as §2

[19] = test system: green foxtail; assay: Test C preemergence; format: in vivo, Setaria viridis
How it was run: as §2

[20] = test system: corn; assay: Test C preemergence; format: in vivo, Zea mays
How it was run: as §2

[21] = test system: oat, wild; assay: Test C preemergence; format: in vivo, Avena fatua
How it was run: as §2

[22] = test system: green foxtail; assay: Test C postemergence; format: in vivo, Setaria viridis; conditions: 10 days, 0 to 100 scale (0 no effect, 100 complete control)
How it was run: as §2

[23] = test system: wheat; assay: Test C preemergence; format: in vivo, Triticum aestivum
How it was run: as §2

[24] = test system: corn; assay: Test C postemergence; format: in vivo, Zea mays; conditions: 10 days, 0 to 100 scale (0 no effect, 100 complete control)
How it was run: as §2

[25] = test system: barnyardgrass; assay: Test C postemergence; format: in vivo, Echinochloa crusgalli; conditions: 10 days, 0 to 100 scale (0 no effect, 100 complete control)
How it was run: as §2

[26] = test system: ryegrass, Italian; assay: Test C preemergence; format: in vivo, Lolium multiflorum
How it was run: as §2

[27] = test system: horseweed; assay: Test C postemergence; format: in vivo, Erigeron canadensis; conditions: 10 days, 0 to 100 scale (0 no effect, 100 complete control)
How it was run: as §2

[28] = test system: galium; assay: Test C postemergence; format: in vivo, Galium aparine; conditions: 10 days, 0 to 100 scale (0 no effect, 100 complete control)
How it was run: as §2

[29] = 500 g ai/ha, preemergence, 0 to 100 scale (0 no effect, 100 complete control)
[30] = Preemergence, 125 g ai/ha, 0 to 100 scale, 0 no effect, 100 complete control

Cc1ccc(-n2cnc(C(C)(C)C)n2)cc1C(=O)N1CC(C(F)(F)F)Oc2c(Cl)cccc21 (stereo not shown) [Compound 350]
Plant response rating, Rice (Flood) [1]: 0
Blackgrass plant response rating [2, 29]: 50
Plant response rating, Blackgrass [2, 30]: 20
Plant response rating, Ryegrass, Italian ([3]; 500 g ai/ha, postemergence): 30
Plant response rating, Ryegrass, Italian ([3]; Postemergence, 125 g ai/ha): 10
Plant response rating, Soybean ([4]; 500 g ai/ha, postemergence): 100
Plant response rating, Soybean ([4]; Postemergence, 125 g ai/ha): 100
Plant response rating, Sedge, Umbrella (Flood) [5]: 0
Plant response rating, Kochia ([6]; 500 g ai/ha, postemergence): 90
Plant response rating, Kochia ([6]; Postemergence, 125 g ai/ha): 70
Plant response rating, Ducksalad (Flood) [7]: 0
Plant response rating, Oat, Wild ([8]; 500 g ai/ha, postemergence): 10
Plant response rating, Oat, Wild ([8]; Postemergence, 125 g ai/ha): 0
Soybean plant response rating [9, 29]: 90
Plant response rating, Soybean [9, 30]: 90
Plant response rating, Wheat ([10]; 500 g ai/ha, postemergence): 10
Plant response rating, Wheat ([10]; Postemergence, 125 g ai/ha): 10
Plant response rating, Barnyardgrass (Flood) [11]: 0
Kochia plant response rating [12, 29]: 80
Plant response rating, Kochia [12, 30]: 50
Plant response rating, Blackgrass ([13]; 500 g ai/ha, postemergence): 20
Plant response rating, Blackgrass ([13]; Postemergence, 125 g ai/ha): 10
Pigweed, Palmer plant response rating [14, 29]: 100
Plant response rating, Pigweed, Palmer [14, 30]: 100
Plant response rating, Ragweed ([15]; 500 g ai/ha, postemergence): 50
Plant response rating, Ragweed ([15]; Postemergence, 125 g ai/ha): 30
Barnyardgrass plant response rating [16, 29]: 100
Plant response rating, Barnyardgrass [16, 30]: 50
Plant response rating, Pigweed, Palmer ([17]; 500 g ai/ha, postemergence): 100
Plant response rating, Pigweed, Palmer ([17]; Postemergence, 125 g ai/ha): 100
Ragweed plant response rating [18, 29]: 60
Plant response rating, Ragweed [18, 30]: 20
Foxtail, Green plant response rating [19, 29]: 100
Plant response rating, Foxtail, Green [19, 30]: 100
Corn plant response rating [20, 29]: 0
Plant response rating, Corn [20, 30]: 0
Oat, Wild plant response rating [21, 29]: 50
Plant response rating, Oat, Wild [21, 30]: 30
Plant response rating, Foxtail, Green ([22]; 500 g ai/ha, postemergence): 80
Plant response rating, Foxtail, Green ([22]; Postemergence, 125 g ai/ha): 30
Wheat plant response rating [23, 29]: 30
Plant response rating, Wheat [23, 30]: 30
Plant response rating, Corn ([24]; 500 g ai/ha, postemergence): 20
Plant response rating, Corn ([24]; Postemergence, 125 g ai/ha): 10
Plant response rating, Barnyardgrass ([25]; 500 g ai/ha, postemergence): 30
Plant response rating, Barnyardgrass ([25]; Postemergence, 125 g ai/ha): 10
Ryegrass, Italian plant response rating [26, 29]: 100
Plant response rating, Ryegrass, Italian [26, 30]: 100
Plant response rating, Horseweed ([27]; 500 g ai/ha, postemergence): 40
Plant response rating, Horseweed ([27]; Postemergence, 125 g ai/ha): 40
Plant response rating, Galium ([28]; 500 g ai/ha, postemergence): 100
Plant response rating, Galium ([28]; Postemergence, 125 g ai/ha): 80
